The subject of test [1] is Klebsiella pneumoniae ATCC 4352. As to the kind of experiment: Coated coupon surface antimicrobial test, Klebsiella pneumoniae. Particulars: Stainless Steel 2″ × 2″ coupons, tested by Applicant, challenged with 3.8 × 10^7 bacteria; copolymer 0.0299 g/m2, Aegis 2.36 g/m2. Type of test: cell-based. The protocol:
(§1) The silylated copolymer of Example II hereinabove was dissolved in isopropanol (IPA) to give a 30% w/v (IPA) solution. This IPA solution was then diluted to a 0.1% w/v concentration with additional IPA solvent.
(§2) 2″×2″ test coupons of Formica and 316 Stainless Steel were first washed with soap and water then wiped with a 70 wt. % aqueous ethanol solution and dried. The copolymer 2600 solution was applied via misting onto the coupon surfaces using a Preval sprayer. The surfaces of the coupons were sprayed until completely covered by the copolymer solution and then dried horizontally for >3 hr. at room temperature. Control coupons were sprayed with 30 wt. % aqueous IPA solution followed by drying under identical conditions. The final areal concentration of the dried copolymer on the test coupon surface was 0.0299 g/m2. All coupons were then irradiated with a C wavelength germicidal Ultraviolet Lamp (UVC) situated within a biosafety cabinet. […]
Antimicrobial; testing was performed by Applicant and independently by Professor. Charles Gerba, Ph.D. As a control, Applicant also determined the antimicrobial properties of a material sold in commerce by Aegis under the tradename AEM 5772-5. […]

The test system of test [2] is Staphylococcus aureus ATCC 6538. Nature of the test: Coated coupon surface antimicrobial test, Staphylococcus aureus. Particulars: Stainless Steel 2″ × 2″ coupons, tested by Applicant, challenged with 1.1 × 10^7 bacteria; copolymer 0.0299 g/m2, Aegis 2.36 g/m2. It is filed as cell-based. The protocol: as §1, §2
Antimicrobial; testing was performed by Applicant and independently by Professor. Charles Gerba, Ph.D. As a control, Applicant also determined the antimicrobial properties of a material sold in commerce by Aegis under the tradename AEM 5772-5.

Molecules are shown by their SMILES.

Turning to `CCCCCCCCCCCCCCCCCC[N+](C)(C)CCC[Si](O)(O)O.[Cl-]` [Aegis Quaternary Ammonium Silane, 3-(trihydroxysilyl) propyldimethyloctadecyl ammonium chloride], the “Ave. Log10 Reduction ± SD v. control 12 min exposure” value in test [1] was 1.15 ± 0.26 log10. The “Ave. Log10 Reduction ± SD v. control 10 min exposure” value in test [2] came out at 0.00 log10.

The record behind these values is patent US9403944B2, “Antipathogenic guanidinium copolymer” (priority 2012, dated 2016).
